According to the supplement of paper PMC11061612:

Columns and labels:
Assay in all cases: Bliss excess, mean over the matrix (fraction); higher = more synergy
[1] = tested on: ASH-3 (Thyroid Gland Carcinoma)
In short: (§1)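 After 24 hours at 37°C and 5% CO2 in 1536-well plates, cells in DMEM/F12 or RPMI plus 10% FBS received two-drug dose matrices for 72 hours. Viability came from CellTiter-Glo 2.0 luminescence and was scaled as inhibition, anchored at 0 by vehicle wells and at 1 by blank wells. Combination Emax is taken as the second-highest inhibition in the matrix, and Bliss excess as the observed combination effect less EA + EB − EA·EB, with EA and EB the single-agent effects.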

[2] = tested on: BV-173 (Chronic Myelogenous Leukemia)
In short: as §1

EW-3 (Ewing's Sarcoma) = tested on: EW-3 (Ewing's Sarcoma)
In short: as §1

[3] = tested on: H-EMC-SS (Chondrosarcoma)
In short: as §1

[4] = tested on: HC-1 (Other Blood Carcinomas)
In short: as §1

[5] = tested on: HSC-2 (Oral Cavity Carcinoma)
In short: as §1

IMR-5 (Neuroblastoma) = tested on: IMR-5 (Neuroblastoma)
In short: as §1

[6] = tested on: KYSE-150 (Esophageal Squamous Cell Carcinoma)
In short: as §1

[7] = tested on: LOU-NH91 (Squamous Cell Lung Carcinoma)
In short: as §1

[8] = tested on: MFE-319 (Endometrial Carcinoma)
In short: as §1

[9] = tested on: NCI-H2347 (Lung Adenocarcinoma)
In short: as §1

[10] = tested on: PF-382 (T-Lymphoblastic Leukemia)
In short: as §1

RPMI-7951 (Melanoma) = tested on: RPMI-7951 (Melanoma)
In short: as §1

U-87-MG (Glioblastoma) = tested on: U-87-MG (Glioblastoma)
In short: as §1

## CC1(C)CCC(CN2CCN(c3ccc(C(=O)NS(=O)(=O)c4ccc(NCC5CCOCC5)c([N+](=O)[O-])c4)c(Oc4cnc5[nH]ccc5c4)c3)CC2)=C(c2ccc(Cl)cc2)C1 [Venetoclax] + C1CN(CCC1(C(=O)N[C@@H](CCO)C2=CC=C(C=C2)Cl)N)C3=NC=NC4=C3C=CN4 [Capivasertib] (first compound max 1 µM, 7x7, partner max 3 µM)
[1]
  Bliss excess: -0.0554
[2]
  Bliss excess: -0.0613
EW-3 (Ewing's Sarcoma)
  Bliss excess: 0.0001
[3]
  Bliss excess: -0.0204
[4]
  Bliss excess: 0.0217
[5]
  Bliss excess: -0.0823
IMR-5 (Neuroblastoma)
  Bliss excess: -0.0486
[6]
  Bliss excess: 0.0107
[7]
  Bliss excess: -0.0805
[8]
  Bliss excess: -0.0414
[9]
  Bliss excess: -0.0627
[10]
  Bliss excess: -0.0144
RPMI-7951 (Melanoma)
  Bliss excess: -0.0233
U-87-MG (Glioblastoma)
  Bliss excess: -0.0214

## CC1(C)CCC(CN2CCN(c3ccc(C(=O)NS(=O)(=O)c4ccc(NCC5CCOCC5)c([N+](=O)[O-])c4)c(Oc4cnc5[nH]ccc5c4)c3)CC2)=C(c2ccc(Cl)cc2)C1 [Venetoclax] + C=CCn1c(=O)c2cnc(Nc3ccc(N4CCN(C)CC4)cc3)nc2n1-c1cccc(C(C)(C)O)n1 [AZD1775] (first compound max 1 µM, partner max 1 µM)
[1]
  Bliss excess: -0.0662
[2]
  Bliss excess: -0.0206
EW-3 (Ewing's Sarcoma)
  Bliss excess: 0.0735
[3]
  Bliss excess: -0.0532
[4]
  Bliss excess: 0.0665
[5]
  Bliss excess: -0.0096
IMR-5 (Neuroblastoma)
  Bliss excess: 0.0237
[6]
  Bliss excess: -0.0452
[7]
  Bliss excess: -0.0815
[8]
  Bliss excess: -0.0129
[9]
  Bliss excess: -0.0762
[10]
  Bliss excess: -0.0639
RPMI-7951 (Melanoma)
  Bliss excess: -0.0559
U-87-MG (Glioblastoma)
  Bliss excess: -0.0456

## CC1(C)CCC(CN2CCN(c3ccc(C(=O)NS(=O)(=O)c4ccc(NCC5CCOCC5)c([N+](=O)[O-])c4)c(Oc4cnc5[nH]ccc5c4)c3)CC2)=C(c2ccc(Cl)cc2)C1 [Venetoclax] + CCN(CCO)CCCOc1ccc2c(Nc3cc(CC(=O)Nc4cccc(F)c4)[nH]n3)ncnc2c1 [AZD2811] (first compound max 1 µM, 7x7, partner max 1 µM)
[1]
  Bliss excess: -0.0166
[2]
  Bliss excess: -0.0739
EW-3 (Ewing's Sarcoma)
  Bliss excess: 0.0634
[3]
  Bliss excess: -0.0468
[4]
  Bliss excess: 0.177
[5]
  Bliss excess: -0.0264
IMR-5 (Neuroblastoma)
  Bliss excess: -0.0014
[6]
  Bliss excess: 0.0115
[7]
  Bliss excess: -0.0477
[8]
  Bliss excess: 0.0015
[9]
  Bliss excess: -0.053
[10]
  Bliss excess: 0.0279
RPMI-7951 (Melanoma)
  Bliss excess: 0.0107
U-87-MG (Glioblastoma)
  Bliss excess: -0.0009

## CC1(C)CCC(CN2CCN(c3ccc(C(=O)NS(=O)(=O)c4ccc(NCC5CCOCC5)c([N+](=O)[O-])c4)c(Oc4cnc5[nH]ccc5c4)c3)CC2)=C(c2ccc(Cl)cc2)C1 [Venetoclax] + CN(C)CCCOc1ccc(-c2ccc3ncc4c(c3c2)n(C2CCOCC2)c(=O)n4C)cn1 [AZD0156] (first compound max 1 µM, 7x7, partner max 1 µM)
[1]
  Bliss excess: -0.0193
[2]
  Bliss excess: -0.0598
EW-3 (Ewing's Sarcoma)
  Bliss excess: 0.032
[3]
  Bliss excess: -0.0387
[4]
  Bliss excess: -0.0244
[5]
  Bliss excess: 0.0307
IMR-5 (Neuroblastoma)
  Bliss excess: -0.0087
[6]
  Bliss excess: -0.0356
[7]
  Bliss excess: -0.0307
[8]
  Bliss excess: 0.0513
[9]
  Bliss excess: -0.0488
[10]
  Bliss excess: 0.0446
RPMI-7951 (Melanoma)
  Bliss excess: 0
U-87-MG (Glioblastoma)
  Bliss excess: -0.0163

## CC1(C)CCC(CN2CCN(c3ccc(C(=O)NS(=O)(=O)c4ccc(NCC5CCOCC5)c([N+](=O)[O-])c4)c(Oc4cnc5[nH]ccc5c4)c3)CC2)=C(c2ccc(Cl)cc2)C1 [Venetoclax] + COc1cc(Nc2ncc3c(n2)-c2ccc(Cl)cc2C(c2c(F)cccc2OC)=NC3)ccc1C(=O)O [Alisertib] (first compound max 1 µM, 7x7, partner max 10 µM)
[1]
  Bliss excess: 0.0145
[2]
  Bliss excess: -0.018
EW-3 (Ewing's Sarcoma)
  Bliss excess: 0.079
[3]
  Bliss excess: 0.0092
[4]
  Bliss excess: 0.18
[5]
  Bliss excess: 0.0857
IMR-5 (Neuroblastoma)
  Bliss excess: 0.0402
[6]
  Bliss excess: -0.0364
[7]
  Bliss excess: -0.0026
[8]
  Bliss excess: -0.0256
[9]
  Bliss excess: -0.0487
[10]
  Bliss excess: 0.0444
RPMI-7951 (Melanoma)
  Bliss excess: 0.0107
U-87-MG (Glioblastoma)
  Bliss excess: -0.087

## CC1(C)CCC(CN2CCN(c3ccc(C(=O)NS(=O)(=O)c4ccc(NCC5CCOCC5)c([N+](=O)[O-])c4)c(Oc4cnc5[nH]ccc5c4)c3)CC2)=C(c2ccc(Cl)cc2)C1 [Venetoclax] + C[C@@H]1COCCN1C2=NC(=NC(=C2)C3(CC3)[S@](=N)(=O)C)C4=C5C=CNC5=NC=C4 [AZD6738] (first compound max 1 µM, 7x7, partner max 10 µM)
[1]
  Bliss excess: -0.131
[2]
  Bliss excess: -0.0634
EW-3 (Ewing's Sarcoma)
  Bliss excess: 0.0185
[3]
  Bliss excess: -0.0416
[4]
  Bliss excess: 0.0289
[5]
  Bliss excess: 0.0275
IMR-5 (Neuroblastoma)
  Bliss excess: 0.0104
[6]
  Bliss excess: -0.0979
[7]
  Bliss excess: -0.0023
[8]
  Bliss excess: -0.0494
[9]
  Bliss excess: -0.0454
[10]
  Bliss excess: 0.0366
RPMI-7951 (Melanoma)
  Bliss excess: -0.0474
U-87-MG (Glioblastoma)
  Bliss excess: -0.0487

## CC1(C)CCC(CN2CCN(c3ccc(C(=O)NS(=O)(=O)c4ccc(NCC5CCOCC5)c([N+](=O)[O-])c4)c(Oc4cnc5[nH]ccc5c4)c3)CC2)=C(c2ccc(Cl)cc2)C1 [Venetoclax] + C[C@@H](Nc1cc(F)cc(F)c1)c1cc(C(=O)N(C)C)cc2c(=O)cc(N3CCOCC3)oc12 [AZD8186] (first compound max 1 µM, 7x7, partner max 3 µM)
[1]
  Bliss excess: -0.0223
[2]
  Bliss excess: -0.0477
EW-3 (Ewing's Sarcoma)
  Bliss excess: 0.0336
[3]
  Bliss excess: -0.0159
[4]
  Bliss excess: 0.0693
[5]
  Bliss excess: -0.0482
IMR-5 (Neuroblastoma)
  Bliss excess: 0.0793
[6]
  Bliss excess: -0.0281
[7]
  Bliss excess: -0.0647
[8]
  Bliss excess: -0.0419
[9]
  Bliss excess: -0.0045
[10]
  Bliss excess: 0.0111
RPMI-7951 (Melanoma)
  Bliss excess: -0.0344
U-87-MG (Glioblastoma)
  Bliss excess: -0.117

## CC1(C)CCC(CN2CCN(c3ccc(C(=O)NS(=O)(=O)c4ccc(NCC5CCOCC5)c([N+](=O)[O-])c4)c(Oc4cnc5[nH]ccc5c4)c3)CC2)=C(c2ccc(Cl)cc2)C1 [Venetoclax] + Cc1cc2ncnn2cc1Nc1ncc2c(n1)n(C1CCOCC1)c(=O)n2C [AZD7648] (first compound max 1 µM, 7x7, partner max 10 µM)
[1]
  Bliss excess: -0.0732
[2]
  Bliss excess: -0.0492
EW-3 (Ewing's Sarcoma)
  Bliss excess: 0.0149
[3]
  Bliss excess: -0.0179
[4]
  Bliss excess: -0.02
[5]
  Bliss excess: -0.0177
IMR-5 (Neuroblastoma)
  Bliss excess: -0.0038
[6]
  Bliss excess: -0.0509
[7]
  Bliss excess: -0.0202
[8]
  Bliss excess: -0.0442
[9]
  Bliss excess: -0.0665
[10]
  Bliss excess: -0.0134
RPMI-7951 (Melanoma)
  Bliss excess: -0.0226
U-87-MG (Glioblastoma)
  Bliss excess: -0.0832

## CC1(C)CCC(CN2CCN(c3ccc(C(=O)NS(=O)(=O)c4ccc(NCC5CCOCC5)c([N+](=O)[O-])c4)c(Oc4cnc5[nH]ccc5c4)c3)CC2)=C(c2ccc(Cl)cc2)C1 [Venetoclax] + Cn1cnc2c(F)c(Nc3ccc(Br)cc3Cl)c(C(=O)NOCCO)cc21 [Selumetinib] (first compound max 1 µM, 7x7, partner max 3 µM)
[1]
  Bliss excess: -0.0074
[2]
  Bliss excess: -0.0183
EW-3 (Ewing's Sarcoma)
  Bliss excess: -0.0413
[3]
  Bliss excess: -0.0381
[4]
  Bliss excess: 0.0509
[5]
  Bliss excess: -0.0511
IMR-5 (Neuroblastoma)
  Bliss excess: 0.0009
[6]
  Bliss excess: -0.0102
[7]
  Bliss excess: -0.0291
[8]
  Bliss excess: -0.0034
[9]
  Bliss excess: -0.012
[10]
  Bliss excess: -0.0038
RPMI-7951 (Melanoma)
  Bliss excess: -0.049
U-87-MG (Glioblastoma)
  Bliss excess: -0.0889
